Paper PMC7429951 (Journal of Medicinal Chemistry, 2020)

Columns and labels:
[1] = target: peptidase domain of ColH (ColH-PD) (Hathewaya histolytica, UniProt Q46085); experiment: biochemical; design: species or system Clostridium histolyticum
[2] = target: peptidase domain of ColT (ColT-PD) (Clostridium tetani, UniProt Q899Y1); experiment: biochemical; design: species or system C. tetani; conditions: read-out: ColT-PD % inhibition @ 100 μM
[3] = target: T1, collagenase unit of ColQ1 (ColQ1-CU) (Bacillus cereus, UniProt B9J3S4); experiment: biochemical; design: species or system B. cereus strain Q1; conditions: read-out: ColQ1-CU % inhibition @ 100 μM
T1 construct: the collagenase unit of ColQ1 (ColQ1-CU) from B. cereus strain Q1

MMP-2 = target: T2, MMP-2 (Homo sapiens, UniProt P08253); experiment: MMP-2 off-target inhibition; assay type: biochemical
T2 sequence (P08253 110-660): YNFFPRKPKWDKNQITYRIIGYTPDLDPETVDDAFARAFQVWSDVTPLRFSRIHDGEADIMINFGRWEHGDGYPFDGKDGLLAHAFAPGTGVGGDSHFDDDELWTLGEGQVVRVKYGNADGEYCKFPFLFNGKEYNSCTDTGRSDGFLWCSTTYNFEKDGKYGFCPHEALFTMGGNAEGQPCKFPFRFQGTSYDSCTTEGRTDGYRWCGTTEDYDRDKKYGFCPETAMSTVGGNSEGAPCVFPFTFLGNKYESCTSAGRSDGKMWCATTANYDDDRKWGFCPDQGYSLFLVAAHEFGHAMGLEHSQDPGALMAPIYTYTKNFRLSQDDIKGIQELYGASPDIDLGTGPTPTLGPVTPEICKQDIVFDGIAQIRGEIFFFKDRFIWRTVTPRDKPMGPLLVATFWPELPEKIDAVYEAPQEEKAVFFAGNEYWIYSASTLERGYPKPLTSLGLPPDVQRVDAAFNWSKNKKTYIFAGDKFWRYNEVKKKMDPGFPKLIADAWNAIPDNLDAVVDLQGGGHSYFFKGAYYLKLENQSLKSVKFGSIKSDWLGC
From the text: (§1) Previously, we described N-aryl mercaptoacetamides with high selectivity for the bacterial over a broad range of human MMPs.[29],[30] MMPs are calcium-dependent zinc metalloproteases that play a pivotal role in numerous biochemical processes in humans.[39],[40] Based on the depth of their S1′ binding pocket, MMPs can be divided into three classes: deep (e.g., MMP-3 and -14), intermediate (e.g., MMP-2 and -8), and shallow (e.g., MMP-1 and -7). With the aim to explore the interactions of our inhibitors with all three pocket types, which could help us to assess potential effects on other not-tested representatives, we chose a panel of six MMPs, comprising two members of each class. In addition, HDAC-3, HDAC-8, and TACE (ADAM-17)—enzymes involved in gene expression and the processing of TNF-α,[41],[42] respectively—were selected as important additional human off-targets.

MMP-3 = MMP-3 (Homo sapiens, UniProt P08254); experiment: MMP-3 off-target inhibition; assay type: biochemical; conditions: read-out: MMP-3 % inhibition @ 100 μM; 100 μM compound
From the text: as §1

MMP-7 = target: T3, MMP-7 (Homo sapiens, UniProt P09237); experiment: MMP-7 off-target inhibition; assay type: biochemical; conditions: read-out: MMP-7 % inhibition @ 100 μM; 100 μM compound
T3 sequence (P09237 95-267): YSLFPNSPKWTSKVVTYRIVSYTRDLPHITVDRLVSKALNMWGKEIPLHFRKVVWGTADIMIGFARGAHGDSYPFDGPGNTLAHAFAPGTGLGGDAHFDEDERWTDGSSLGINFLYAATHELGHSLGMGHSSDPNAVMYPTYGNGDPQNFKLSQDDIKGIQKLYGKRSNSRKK
From the text: as §1

MMP-14 = MMP-14 (Homo sapiens, UniProt P50281); experiment: MMP-14 off-target inhibition; assay type: biochemical
From the text: as §1

HDAC-3 = target: T4, HDAC-3 (Homo sapiens, UniProt O15379); experiment: HDAC-3 inhibitor screening kit; assay type: biochemical
T4 construct: purchased Sigma-Aldrich (Saint Louis, MO)
From the text: as §1

[4] = test system: C. histolyticum strain DSM 1126; experiment: Bacterial growth inhibition assay (MIC) C. histolyticum; assay type: cell-based, Clostridium histolyticum; conditions: strain DSM 1126, BHI medium, 48 h anaerobic
LasB = LasB (Pseudomonas aeruginosa, UniProt Q02RJ6); conditions: vs 4-OMe analogue
in vitro [5] = conditions: human, HEK293 cells (embryonal kidney)
in vitro [6] = conditions: human, A549 cells (lung carcinoma)

peptidase domain of ColH (ColH-PD), sequence (Q46085 331-721 limits assumed): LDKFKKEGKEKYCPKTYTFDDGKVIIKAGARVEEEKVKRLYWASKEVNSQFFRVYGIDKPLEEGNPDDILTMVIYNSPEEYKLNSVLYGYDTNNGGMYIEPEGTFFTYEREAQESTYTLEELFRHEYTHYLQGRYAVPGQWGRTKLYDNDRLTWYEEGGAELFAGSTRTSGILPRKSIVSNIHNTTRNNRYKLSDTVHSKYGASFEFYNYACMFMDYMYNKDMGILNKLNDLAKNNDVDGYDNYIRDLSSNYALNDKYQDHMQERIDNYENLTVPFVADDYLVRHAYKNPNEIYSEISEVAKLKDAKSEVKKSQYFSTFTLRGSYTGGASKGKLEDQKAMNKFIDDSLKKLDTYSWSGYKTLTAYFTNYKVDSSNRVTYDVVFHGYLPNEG
T4 sequence (O15379 whole entry): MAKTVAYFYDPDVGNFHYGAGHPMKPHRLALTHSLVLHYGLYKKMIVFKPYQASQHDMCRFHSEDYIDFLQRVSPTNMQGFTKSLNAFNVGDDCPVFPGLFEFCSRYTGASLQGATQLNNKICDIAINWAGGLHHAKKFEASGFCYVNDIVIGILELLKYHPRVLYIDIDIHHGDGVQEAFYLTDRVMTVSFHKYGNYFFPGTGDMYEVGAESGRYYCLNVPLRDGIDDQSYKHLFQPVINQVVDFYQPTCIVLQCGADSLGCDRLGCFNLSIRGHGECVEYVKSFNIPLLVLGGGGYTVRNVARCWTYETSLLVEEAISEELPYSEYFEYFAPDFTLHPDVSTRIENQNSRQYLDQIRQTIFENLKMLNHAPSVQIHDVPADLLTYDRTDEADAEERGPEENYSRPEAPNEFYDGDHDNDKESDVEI
T4 sequence (Q9Y618 395-489 partner limits assumed): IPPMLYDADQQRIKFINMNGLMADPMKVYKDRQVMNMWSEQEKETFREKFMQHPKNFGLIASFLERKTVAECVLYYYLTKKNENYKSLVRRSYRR
MMP-3, sequence (P08254 100-477): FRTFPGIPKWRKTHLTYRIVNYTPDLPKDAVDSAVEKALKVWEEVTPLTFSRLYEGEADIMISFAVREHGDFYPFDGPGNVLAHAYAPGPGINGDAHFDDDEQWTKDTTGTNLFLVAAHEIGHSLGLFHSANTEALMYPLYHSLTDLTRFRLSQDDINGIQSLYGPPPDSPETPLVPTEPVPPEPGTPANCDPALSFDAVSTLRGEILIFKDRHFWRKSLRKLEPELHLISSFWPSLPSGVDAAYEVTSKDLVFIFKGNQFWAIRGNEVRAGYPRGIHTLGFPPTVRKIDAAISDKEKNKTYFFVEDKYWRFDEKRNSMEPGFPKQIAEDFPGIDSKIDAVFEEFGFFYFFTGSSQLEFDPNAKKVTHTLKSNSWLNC
LasB, sequence (Q02RJ6 198-498): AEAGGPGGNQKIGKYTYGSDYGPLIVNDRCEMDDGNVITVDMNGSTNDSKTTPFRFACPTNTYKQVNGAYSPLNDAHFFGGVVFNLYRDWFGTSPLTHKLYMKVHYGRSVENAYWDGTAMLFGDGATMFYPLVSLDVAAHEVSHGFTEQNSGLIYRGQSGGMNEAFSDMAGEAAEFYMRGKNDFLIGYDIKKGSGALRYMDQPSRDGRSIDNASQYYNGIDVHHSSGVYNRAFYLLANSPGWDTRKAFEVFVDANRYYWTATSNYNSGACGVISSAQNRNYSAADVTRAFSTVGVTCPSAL
peptidase domain of ColT (ColT-PD), sequence (Q899Y1 340-731 limits assumed): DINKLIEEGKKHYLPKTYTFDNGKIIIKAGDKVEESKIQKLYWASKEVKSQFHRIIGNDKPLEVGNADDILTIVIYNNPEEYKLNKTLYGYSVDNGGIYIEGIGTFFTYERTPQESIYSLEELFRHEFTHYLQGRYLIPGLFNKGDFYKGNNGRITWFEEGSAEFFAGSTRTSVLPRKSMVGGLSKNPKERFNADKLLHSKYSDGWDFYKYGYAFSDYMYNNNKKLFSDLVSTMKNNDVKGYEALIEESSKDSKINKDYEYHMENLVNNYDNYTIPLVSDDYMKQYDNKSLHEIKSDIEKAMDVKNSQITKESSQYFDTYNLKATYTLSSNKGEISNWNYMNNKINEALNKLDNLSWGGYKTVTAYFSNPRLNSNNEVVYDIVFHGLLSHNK
T1 sequence (B9J3S4 94-765 limits assumed): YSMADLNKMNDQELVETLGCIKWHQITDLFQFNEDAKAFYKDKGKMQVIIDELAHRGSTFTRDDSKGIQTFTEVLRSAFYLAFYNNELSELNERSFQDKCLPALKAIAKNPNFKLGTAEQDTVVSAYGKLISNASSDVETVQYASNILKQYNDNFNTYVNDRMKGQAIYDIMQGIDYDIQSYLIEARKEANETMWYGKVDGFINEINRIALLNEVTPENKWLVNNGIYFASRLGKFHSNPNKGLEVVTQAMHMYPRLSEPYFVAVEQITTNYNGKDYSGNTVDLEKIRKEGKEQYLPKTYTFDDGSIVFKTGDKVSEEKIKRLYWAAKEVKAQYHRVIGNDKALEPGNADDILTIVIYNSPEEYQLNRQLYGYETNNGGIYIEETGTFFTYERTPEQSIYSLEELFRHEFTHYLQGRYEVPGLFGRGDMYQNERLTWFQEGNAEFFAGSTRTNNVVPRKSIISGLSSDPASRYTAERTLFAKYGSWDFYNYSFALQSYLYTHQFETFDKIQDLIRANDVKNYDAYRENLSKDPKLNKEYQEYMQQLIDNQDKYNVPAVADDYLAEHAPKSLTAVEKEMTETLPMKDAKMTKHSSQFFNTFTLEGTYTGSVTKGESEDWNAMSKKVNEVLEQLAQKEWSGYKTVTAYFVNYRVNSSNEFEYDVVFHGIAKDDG

Structure (SMILES): CC(=O)c1ccc(N2C(=O)CC(S)C2=O)cc1 (centres unmarked) [Compound 25, 1-(4-Acetylphenyl)-3-mercaptopyrrolidine-2,5-dione]
- IC50 [1]: 0.06 ± 0.01 µM
- inhibition at 1 µM ([1]; read-out: ColH-PD % inhibition @ 1 μM): 95%
- inhibition at 100 µM ([1]; read-out: ColH-PD % inhibition @ 100 μM): 96 ± 2%
- inhibition at 100 µM [2]: 102 ± 3%
- inhibition at 100 µM [3]: 99 ± 2%
- inhibition at 50 µM (MMP-2; 50 µM compound, read-out: MMP-2 % inh @50µM): < 10%
- inhibition at 100 µM (MMP-2; read-out: MMP-2 % inhibition @ 100 μM, 100 μM compound): 14 ± 4%
- inhibition at 100 µM (MMP-3): < 10%
- inhibition at 100 µM (MMP-7): < 10%
- inhibition at 50 µM (MMP-14; 50 µM compound, read-out: MMP-14 % inh @50µM): < 10%
- inhibition at 100 µM (MMP-14; read-out: MMP-14 % inhibition @ 100 μM, 100 μM compound): 84 ± 8%
- IC50 (HDAC-3): > 100 µM
- MIC ([4]; Hathewaya histolytica, DSM1126): > 100 µM
- MIC [4]: >100 µM
- times more active on LasB than its methoxy-analogue (LasB): 1.7 times
- IC50 (in vitro [5]): > 100 µM
- IC50 (in vitro [6]): > 100 µM
